Test results reported in patent US20090325219A1, “DEVICE, SYSTEM AND ASSAY FOR MEASURING CELL MOTILITY” (The Queen's University of Belfast, priority 2006, published 2009).
Entries after “also recorded” stand apart in the source; their conditions may differ.

How the values were obtained:
Format in all cases: cell-based, rat
[1] = tested on: AY-27 cells; assay: Conventional Matrigel invasion assay; details: 24 h and 48 h, compared to Mock-TGF and SdM, p<0.05 Student's t-test
Description: FCS (10%) in 0.75 ml RPMI-1640 acted as the chemo-attractant. This was added to the lower compartment of 24-well BioCoat Matrigel invasion chambers (Becton Dickinson Labware, Bedford, Mass.) with an 8-μm pore polycarbonate filter coated with Matrigel. In the upper compartment, 8×10^5 cells/well in SdM were placed in triplicate wells and incubated for 24 h and 48 h at 37° C. in a humidified incubator with 5% CO2. After incubation, the cells that had passed through the filter into the lower wells were stained with Speedy-Diff Rapid Giemsa (Clin-Tech Ltd, Essex, UK. #61078, #61079, #61080) and counted by assessing 10 random high power fields images using ×400 magnification on a Leitz Labrodux K (Germany) light microscope.
(§1) FIG. 10 details results of a conventional motility assay (A) and the Matrigel invasion assay (B). […] Cells were treated with Mock-TGF (i), SdM (ii) or 3 ng.ml TGF-β1 (iii) and images were captured after 24 h and 48 h. The percentage of wound healing was calculated by counting the number of boxes at least half covered by cells in the 5 mm×5 mm grid-rule (A). […] Cells were treated with Mock-TGF (i), SdM (ii) or TGF-β1 (iii) and cells that passed successfully through the matrigel membrane after 24 h and after 48 h were Giemsa stained and enumerated.

[2] = tested on: AY-27 cells; assay: Conventional scratch wound assay; details: compared to SdM and Mock-TGF
Description: Sub-confluent AY-27 cells were detached and 5×10^6 were seeded into 6-well tissue culture plates. The cells were grown to 100% confluency before treatment with Mock-TGF, SdM or 3 ng/ml TGF-β1 in duplicates for 24 h and 48 h. An in vitro “scratch wound” was created by scraping the confluent cell monolayer with a sterile pipette tip to make an approximate 1.0 mm gap. Three fixed points were marked in each well and phase-contrast images were captured at these same points over the 24 h and 48 h treatment course. The area of cells that had migrated beyond the ‘wound’ was estimated by superimposing a 5 mm×5 mm grid over the ‘wound’, and this was expressed as percentage when divided with the area of the ‘wound’.
as §1

[3] = tested on: AY-27 cells; assay: Assay of present invention (motility towards agarose chemo-attractant matrix); details: compared to Mock-TGF and SdM
Description: Ten millimetre coverslips were seeded with AY-27 cells at a density of 5×10^5 and grown to 100% confluency in 12-well plates. The AY-27 cells at 100% confluency on 10 mm coverslips were removed (A) and washed vigorously using SdM medium (B).
In a separate 12-well culture plate, 1 ml of heated 2% agarose matrix consisting of 50% FCS and 50% supplemented RPMI thoroughly mixed was pipetted into each well, and allowed to cool and solidify (C).
A sterile 12 mm diameter metal ring was then used to cut out a circular area in the centre of the matrix (D & E) to provide a cell receiving zone and also to expose a portion of the supporting substrate to form the bridging portion between the cell receiving zone and the agent receiving matrix.
AY-27 cells on the 10 mm coverslip were then placed into the empty tissue receiving zone from which the agarose had been removed (F) such that the sample is spaced apart from and surrounded by the agarose (chemo-attractant agent receiving matrix).
An indentation provided in the cell receiving zone, allows reproducible locating of the coverslip including the cells to be tested in the cell receiving zone. The indentation is of suitable depth such that the top surface of the located slide is substantially flush with surrounding surface of the receiving surface. […]

TGF-β1: Recombinant human TGF-β1 (R&D systems), a known promoter to tumour progression
cells migrated across the matrigel [1]: Significantly more cells were present in the membrane; also recorded: significantly more TGF-β1 treated cells migrated across the matrigel | motility / wound closure ([2]; 3 ng/ml TGF-β1, 24 h): earlier wound closure | motility / wound closure ([2]; 3 ng/ml TGF-β1, 48 h): this effect did not persist | numbers of migrating cells (grid boxes covered) ([3]; 3 ng/ml TGF-β1, 24 h): no significant differences | numbers of migrating cells (grid boxes covered) ([3]; 3 ng/ml TGF-β1, 48 h, p<0.05 student t-test): significantly more cells had migrated; also recorded: significantly greater numbers
